Patent publication US20200316021A1, “Dosing Regimen of Siponimod” (NOVARTIS AG, priority 2017, published 2020)

Columns and labels:
[1] = i.v. versus oral siponimod study in healthy subjects (absolute bioavailability): pharmacokinetics; type: in vivo, human
Procedure: (§1) A comparison of bradyarrhythmic effects (H R, AVB, SP) of a 1 mg oral dose from previous studies and a 1 mg/day i.v. dose infused over 24 h in healthy subjects supported the hypothesis that such effects are related to the slope of the concentration-time curve.
In said study with siponimod administered intravenously, PK and PD were determined. […] This finding was consistent with previous oral administrations of 0.25 mg (starting dose of the oral initial period dosing regimen). The results of this clinical study were the following:
(§2) The safety of the i.v. route in humans was supported by a local tolerance study in rabbit and cardiovascular safety studies in guinea pig, rat and rabbit using i.v. (bolus) route.

[2] = siponimod single dose study (SAD study) in healthy volunteers; type: in vivo; conditions: healthy subjects
[3] = half-life and brain penetration of siponimod; conditions: in vivo
Procedure: (§3) Siponimod is a second generation S1 P receptor modulator that reduces peripheral lymphocyte counts approximately 4-6 hours (h) after the first dose. […] Siponimod's mode of action is believed to include S1P1-mediated prevention of effector lymphocyte recirculation from lymphatic tissue to sites of inflammation, such as the central nervous system (CNS). In addition, there may be direct beneficial effects in the CNS mediated by S1P1 and/or S1P5. […] Thus, siponimod may display additional beneficial activities in the CNS.

[4] = multiple-dose titration clinical study in healthy subjects: daily chronotropic effects (heart rate); type: in vivo, human
Procedure: S1P receptor modulators, as mentioned above, are known to cause dose dependent transient decrease in heart rate within 2-3 hours of drug intake (Legangneux et al 2012, Hoch et al 2014). In order to evaluate on how to best mitigate the bradyarrhythmic risk of siponimod, a multiple-dose titration clinical study in healthy subjects was run.
The primary objective of this study was to measure the daily chronotropic effects of two siponimod dose-titration regimens (from 0.25 mg to 10 mg; Dose Titration (DT) 1# and 2#, respectively) compared to daily chronotropic effects of oral siponimod 10 mg (fixed dose, once daily) and placebo over 12 days. The heart rate (HR) changes have been compared between subjects exposed to 10 mg siponimod once daily (QD) with or without 2 different up-titration schemes. The titration scheme of this study was: • DT 1#: Day 1: 0.25 mg; Day 2: 0.25 mg; Day 3: 0.25 mg; Day 4: 0.5 mg; Day 5: 1.0 mg; Day 6: 2.0 mg; Day 7: 4.0 mg; Day 8: 8.0 mg and from Day 9 to Day 12: 10.0 mg daily. • DT 2#: Day 1: 0.25 mg; Day 2: 0.25 mg; Day 3: 0.5 mg; Day 4: 0.75 mg; Day 5: 1.25 mg; Day 6: 2.0 mg; Day 7: 3.0 mg; Day 8: 5.0 mg; from Day 9 to Day 12: 10.0 mg daily.
This effect was maintained until end of treatment on Day 12. […] It was then concluded that both titration regimens effectively attenuated the initial bradycardia observed on Day 1 of treatment with siponimod 10 mg daily fixed-dose.

[5] = test system: Absolute Lymphocyte Count (ALC); experiment: multiple ascending dosing study (MAD study) in healthy subjects: decline of Absolute Lymphocyte Count; type: in vivo, human; conditions: 0.3 mg to 10 mg dose
Procedure: (§4) In another study in healthy subjects siponimod was administered in multiple doses, i.e. 0.3, 1, 2.5, 10 and 20 mg, over 28 days (multiple ascending dosing study, MAD study).
Amongst the various potential factors which may contribute to the reduction of inflammation, and which may therefore contribute to the efficacy of a treatment by siponimod, one important factor is the reduction of the Absolute Lymphocyte Count (ALC), being ALC known to play an important role in the inflammatory processes, including those in the brain. The exact mechanism by which an S1P receptor modulation may mitigate stroke pathophysiology is/still not fully elucidated and thus, besides the Absolute Lymphocyte Count related effect (ALC-related effect), other potential mechanisms may play a role.

[6] = i.v. siponimod study in healthy subjects: cardiac safety; type: in vivo, human; conditions: i.v. 0.25 mg over 3 hours and 1 mg over 24 hours (4x0.25 mg/6 hours)
Procedure: as §1
(§5) In said study with siponimod administered intravenously, PK and PD were determined. […] This finding was consistent with previous oral administrations of 0.25 mg (starting dose of the oral initial period dosing regimen).

CYP2C9, CYP3A4 = conditions: humans; cited from earlier work
[7] = randomized, placebo-controlled clinical study of siponimod in ischemic stroke, modified Rankin Scale; type: in vivo, human; conditions: two week treatment daily, 7 days i.v. with titration followed by 7 days p.o., 10 mg maintenance
Excerpt: The clinical study investigates the initial efficacy and safety of siponimod administered on top of standard-of-care compared to placebo in patients with ischemic stroke). This is a randomized, doubled-blinded, placebo-controlled, parallel group study of siponimod on top of standard-of-care for ischemic stroke, consisting of 3 epochs: Screening/Baseline, Treatment, and Follow-Up (see FIG. 1).
These patients continue to be followed for the remainder of the assessment schedule (Table 3). i.v. Dose Titration
The siponimod i.v. dosing regimen is as follows: • Day 1: 0.25 mg over 6 hours (×2), then 0.5 mg over 6 hours, then 0.75 mg over 6 hours for a total Day 1 dose of 1.75 mg • Day 2: 1.25 mg over 6 hours, then 2 mg over 6 hours, then 2.5 mg over 6 hours (×2) for a total Day 2 dose of 8.25 mg • Days 3 through Day 7: 2.5 mg over 6 hours (×4) for a total daily dose of 10 mg. • If patient can swallow then the administration from Day 8 to Day 14 is oral.
The modified Rankin Scale (mRS), is a widely-used, clinician-assessed instrument, and is considered the current standard assessment for stroke outcomes by most Health Authorities. It consists of 6 grades of disability, higher scores indicating more severe disability (0=asymptomatic, 6=dead).
The mRS score at 90 days after ischemic stroke is the primary endpoint for measuring siponimod efficacy in this study. […]

[8] = test system: Absolute Lymphocyte Count (ALC); experiment: i.v. versus oral siponimod study in healthy subjects: PD (ALC) effects; type: in vivo, human; conditions: i.v. 0.25 mg over 3 hour and 1 mg over 24 hours vs oral doses at same dose levels
Procedure: as §5

[9] = phase II dose finding study in relapsing-remitting multiple sclerosis (CBAF312A2201), MRI brain lesion parameters; type: in vivo, human; conditions: RRMS patients
Procedure: In a phase II dose finding study of siponimod in patients with relapsing-remitting multiple sclerosis (CBAF312A2201) safety, tolerability and efficacy on magnetic resonance imaging (MRI) brain lesion parameters were evaluated. The dose response curve for the MRI-based efficacy of siponimod given orally once daily compared with placebo was determined.
The dose-response curve as defined by the primary endpoint, favored the upper part of this range, i.e. a dose in the range of siponimod 2 mg, since efficacy seemed to decrease with lower doses. Siponimod achieved positive results in a clinical trial for the treatment of RRMS patients (Selmaj et al., Lancet Neurol, 2013, 12, 756-767) and is currently being investigated in an ongoing phase III study (EXPAND) in patients with SPMS. The dose of 2 mg of siponimod was the chosen dose for this follow up phase III study.

[10] = in vivo, iv
Excerpt: as §2

[11] = clinical study of siponimod pharmacokinetics in CYP2C9 poor metabolizers; type: in vivo, human; conditions: for AUC compared with reference AUC of extensive metabolizers (CYP2C9*1*1): poor metabolizers
Excerpt: In addition to the previously described benefits, the dosing regimen of the present disclosure has also the advantage to highly reduce the additional risks run by the CYP2C9 poor metabolizer.

[12] = multiple ascending dosing study (MAD study) in healthy subjects: adverse events; type: in vivo, human; conditions: 20 mg multiple dose over 28 days
Procedure: as §4

[13] = test system: peripheral lymphocyte counts; experiment: reduction and recovery of peripheral lymphocyte counts; type: in vivo
Procedure: as §3

Compound: CCc1cc(/C(C)=N/OCc2ccc(C3CCCCC3)c(C(F)(F)F)c2)ccc1CN1CC(C(=O)O)C1 [siponimod, 1-{4-[(1E)-N-{[4-cyclohexyl-3-(trifluoromethyl)benzyl]oxy}ethanimidoyl]-2-ethylbenzyl}-3-azetidine carboxylic acid]
- dose and time dependence of pharmacokinetics ([1]; human, in vivo): dose linear and time-independent pharmacokinetics
- bioavailability ([1]; human, in vivo, 0.25 mg, oral versus i.v., healthy subjects, read-out: oral bioavailability F %): 84%
- half-life ([1]; human, in vivo, other: oral and intravenous (range over both routes), oral and i.v. route, read-out: terminal T1/2): 27 to 33 h
- median i.v. Tmax ([1]; i.v. infusion over 3 hours and 24 hours): at the end of the 3 hour and 24 hour infusions
- geometric mean oral Cmax lower than mean i.v. Cmax ([1]; oral versus i.v.): ~48%
- safety and tolerability of the 25 mg single dose ([2]; 25 mg single dose): favorable safety and tolerability profile
- single maximum tolerated dose (single MTD) ([2]; single dose): 25 mg
- crossing of the blood brain barrier [3]: readily crosses the blood brain barrier
- reduction in heart rate vs. placebo ([4]; Day 1, either titration regimen): no statistically significant reduction in heart rate vs. placebo
- reduction in HR ([4]; Days 3 to 7, DT 1# and DT 2#): minor reductions in HR
- heart rates versus placebo ([4]; by Day 9 until Day 12, both titration regimens): comparable to placebo
- bradycardia or AV conduction effects ([4]; dose titration regimens DT 1# and DT 2#, 0.25 mg to 10 mg, 12 days, healthy subjects): Neither DT 1# nor DT 2# resulted in clinically significant bradycardia or AV conduction effects
- heart rates versus placebo ([4]; non-titration regimen, 10 mg fixed dose once daily): considerable separation from placebo throughout the study
- bradyarrhythmia at the starting dose ([4]; starting dose 0.25 mg of the DT regimens): not associated with bradyarrhythmia
- acute ALC response on Day 1 of treatment [5]: dose-dependent decline of ALC
- cardiac safety profile of i.v. infusions [6]: excellent cardiac safety profile
- enzymes eliminating siponimod by metabolism (CYP2C9, CYP3A4): mainly by CYP2C9, followed by CYP3A4
- global functioning measured by modified Rankin Scale (mRS) score on Day 90 after ischemic stroke, compared to placebo [7]: improved global functioning
- magnitude of PD (ALC) effects % Emax, i.v. versus oral [8]: comparable to the effects after oral doses at the same dose levels
- MRI-based efficacy and safety of the dose range ([9]; 1.25 mg to 2 mg dose range orally once daily): close to maximal efficacy, with a good safety profile
- MRI-based efficacy compared to 2 mg ([9]; 10 mg orally once daily): little additional efficacy compared to 2 mg
- safety profile ([9]; 10 mg orally once daily): worse safety profile
- cardiovascular effects in i.v. cardiovascular safety studies [10]: Cmax-related transient cardiovascular effects
- Cmax in poor versus extensive metabolizers ([11]; CYP2C9 poor metabolizers): only slightly greater
- Tmax in poor versus extensive metabolizers ([11]; CYP2C9 poor metabolizers): comparable in poor and extensive metabolizers
- AUC compared with reference AUC of extensive metabolizers (CYP2C9*1*1) ([11]; first value printed (first-named genotype CYP2C9*2*3)): approximately 2 fold
- AUC compared with reference AUC of extensive metabolizers (CYP2C9*1*1) ([11]; second value printed (second-named genotype)): ~4 fold
- adverse events at the maximum investigated multiple dose [12]: symptomatic bradycardia as the only relevant adverse event
- time to reduction of peripheral lymphocyte counts after the first dose ([13]; after the first dose): 4 to 6 h
- recovery of the baseline lymphocyte counts ([13]; after treatment withdrawal): within a week after treatment withdrawal
